{"source": "patent US9605026B2", "about": "“Hydrogen-bond surrogate peptides and peptidomimetics for p53 reactivation” (New York University, priority 2013, dated 2017)", "key": {"p53": {"test_system": "p53", "assay": "p53 transcriptional activity (Cignal p53 luciferase reporter) in UMSCC47 cells", "type": "cell-based, human", "conditions": "24 hours", "description": "(§1) FIG. 5A is an schematic illustration showing that CH1 has two distinct target sites. HIF1-α/p300 structures were used as guides to design helix mimetics that target site A and site B on the CH1 domain of p300. […] CH1iA (SEQ ID NO: 7) and CH1iB (SEQ ID NO: 8) were designed to mimic two helices from the C-terminal domain of HIF-1α. The peptides were locked into the helical conformation by the hydrogen bond surrogate method. FIG. 5C is a graph of p53 activity. UMSCC47 (left) and UMSCC74A (right) cells were co-transfected with a p53 Firefly luciferase reporter plasmid and a control Renilla luciferase plasmid. After 24 hours, cells were treated with control (vehicle), CH1iA (10 μM), or CH1iB (10 μM) for 24 hours. Firefly luciferase activity was normalized to Renilla luciferase activity to control for transfection efficiency. Data is normalized to control and presented as mean±SEM. *P<0.05, n=3. FIG. 5D is a western blot showing total and acetylated p53 levels. UMSCC47 (left) and UMSCC74A (right) cells were treated with control (vehicle), CH1iA (10 μM), or CH1iB (10 μM) for 24 hours. Cell lysates were immunoblotted with anti-p53 or anti-acetylated[K382]-p53 antibody. FIG. 5E is a pair of graphs of p300, p53, p21, miR-34a, and miR-200c expression. UMSCC47 (top panel) and UMSCC74A (bottom panel) cells were treated with control (vehicle), CH1iA (10 μM), or CH1iB (10 μM) for 24 hours. mRNA expression was determined using qPCR with validated TaqMan assays. Data is normalized to control cells and presented as mean±SEM. *P<0.01, control vs. CH1iB, n=3. FIG. 5F is a western blot showing HPV16 E6-p300 association. UMSCC47 cells were treated with control (vehicle), CH1iA (10 μM), or CH1iB (10 μM) for 24 hours. Cell lysates were extracted, immunoprecipitated with anti-p300 antibody, and immunoblotted with anti-E6 antibody. Cell lysates were immunoblotted with anti-E6 or anti-p300 antibody for input control. FIG. 5G is a set of graphs of cell proliferation. UMSCC47 (top left panel), UMSCC74A (top right panel), and IMR90 (human normal fibroblasts) (bottom panel) cells were treated with control (vehicle), CH1iA (10 μM), CH1iB (10 μM), cis-platinum (10 μM), CH1iA (10 μM) and cis-platinum (10 μM), or CH1iB (10 μM) and cis-platinum (10 μM) for 24, 48, or 72 hours. Data is normalized to Day 0 and presented as mean±SEM. *P<0.01, control vs. CH1iB or cis-platinum, **P<0.01 CH1iB or cis-platinum vs. CH1iB and cis-platinum, n=6.\nFIG. 6A is a western blot showing total and acetylated p53 levels. […] UMSCC47 cells were treated with control (vehicle), CH1iB (10 μM), cis-platinum (10 μM), or CH1iB (10 μM) and cis-platinum (10 μM) for 24 hours. mRNA expression was determined using qPCR with validated TaqMan assays. […]"}, "UMSCC47 cells": {"test_system": "UMSCC47 cells", "assay": "Cell proliferation (MTT) in UMSCC47 cells", "type": "cell-based, human", "conditions": "for cell proliferation, single-agent: UMSCC47, 10 μM, 24-72 hours", "description": "as §1\nFIG. 7A is a graph of p53 transcriptional activity. UMSCC47 cells were co-transfected with a p53 Firefly luciferase reporter plasmid and a control Renilla luciferase plasmid. After 24 hours, cells were treated with control (vehicle) or CH1iB-mut (10 μM) for 24 hours. Firefly luciferase activity was normalized to Renilla luciferase activity to control for transfection efficiency. Data is presented as mean±SEM. *P<0.05, n=5. FIG. 7B is a graph of cell proliferation. UMSCC47 cells were treated with control (vehicle), CH1iB-mut (10 μM), cis-platinum (10 μM), or CH1iB-mut (10 μM) and cis-platinum (10 μM) for 24 or 48 hours. Data is normalized to Day 0 and presented as mean±SEM. *P<0.01, control or CH1iB-mut vs. cis-platinum or cis-platinum+CH1iB-mut, n=6.\nCell proliferation was assessed using the MTT reagent (Roche Molecular Biochemicals, Nutley, N.J.) to detect metabolic active cells. Absorbance was measured at 570 nm in the Spectra Max 190 ELISA reader (Molecular Devices, Sunnyvale, Calif.) after overnight incubation. […]"}, "[1]": {"target": "T1, HPV16 E6-p300 association (Homo sapiens, UniProt Q09472)", "T1 construct": "UMSCC47 cells were treated with control (vehicle), CH1iA (10 μM), or CH1iB (10 μM) for 24 hours; endogenous in cells; host or cells: UMSCC47 (HPV16-positive HNSCC cells)", "T1 sequence (Q09472 whole entry)": "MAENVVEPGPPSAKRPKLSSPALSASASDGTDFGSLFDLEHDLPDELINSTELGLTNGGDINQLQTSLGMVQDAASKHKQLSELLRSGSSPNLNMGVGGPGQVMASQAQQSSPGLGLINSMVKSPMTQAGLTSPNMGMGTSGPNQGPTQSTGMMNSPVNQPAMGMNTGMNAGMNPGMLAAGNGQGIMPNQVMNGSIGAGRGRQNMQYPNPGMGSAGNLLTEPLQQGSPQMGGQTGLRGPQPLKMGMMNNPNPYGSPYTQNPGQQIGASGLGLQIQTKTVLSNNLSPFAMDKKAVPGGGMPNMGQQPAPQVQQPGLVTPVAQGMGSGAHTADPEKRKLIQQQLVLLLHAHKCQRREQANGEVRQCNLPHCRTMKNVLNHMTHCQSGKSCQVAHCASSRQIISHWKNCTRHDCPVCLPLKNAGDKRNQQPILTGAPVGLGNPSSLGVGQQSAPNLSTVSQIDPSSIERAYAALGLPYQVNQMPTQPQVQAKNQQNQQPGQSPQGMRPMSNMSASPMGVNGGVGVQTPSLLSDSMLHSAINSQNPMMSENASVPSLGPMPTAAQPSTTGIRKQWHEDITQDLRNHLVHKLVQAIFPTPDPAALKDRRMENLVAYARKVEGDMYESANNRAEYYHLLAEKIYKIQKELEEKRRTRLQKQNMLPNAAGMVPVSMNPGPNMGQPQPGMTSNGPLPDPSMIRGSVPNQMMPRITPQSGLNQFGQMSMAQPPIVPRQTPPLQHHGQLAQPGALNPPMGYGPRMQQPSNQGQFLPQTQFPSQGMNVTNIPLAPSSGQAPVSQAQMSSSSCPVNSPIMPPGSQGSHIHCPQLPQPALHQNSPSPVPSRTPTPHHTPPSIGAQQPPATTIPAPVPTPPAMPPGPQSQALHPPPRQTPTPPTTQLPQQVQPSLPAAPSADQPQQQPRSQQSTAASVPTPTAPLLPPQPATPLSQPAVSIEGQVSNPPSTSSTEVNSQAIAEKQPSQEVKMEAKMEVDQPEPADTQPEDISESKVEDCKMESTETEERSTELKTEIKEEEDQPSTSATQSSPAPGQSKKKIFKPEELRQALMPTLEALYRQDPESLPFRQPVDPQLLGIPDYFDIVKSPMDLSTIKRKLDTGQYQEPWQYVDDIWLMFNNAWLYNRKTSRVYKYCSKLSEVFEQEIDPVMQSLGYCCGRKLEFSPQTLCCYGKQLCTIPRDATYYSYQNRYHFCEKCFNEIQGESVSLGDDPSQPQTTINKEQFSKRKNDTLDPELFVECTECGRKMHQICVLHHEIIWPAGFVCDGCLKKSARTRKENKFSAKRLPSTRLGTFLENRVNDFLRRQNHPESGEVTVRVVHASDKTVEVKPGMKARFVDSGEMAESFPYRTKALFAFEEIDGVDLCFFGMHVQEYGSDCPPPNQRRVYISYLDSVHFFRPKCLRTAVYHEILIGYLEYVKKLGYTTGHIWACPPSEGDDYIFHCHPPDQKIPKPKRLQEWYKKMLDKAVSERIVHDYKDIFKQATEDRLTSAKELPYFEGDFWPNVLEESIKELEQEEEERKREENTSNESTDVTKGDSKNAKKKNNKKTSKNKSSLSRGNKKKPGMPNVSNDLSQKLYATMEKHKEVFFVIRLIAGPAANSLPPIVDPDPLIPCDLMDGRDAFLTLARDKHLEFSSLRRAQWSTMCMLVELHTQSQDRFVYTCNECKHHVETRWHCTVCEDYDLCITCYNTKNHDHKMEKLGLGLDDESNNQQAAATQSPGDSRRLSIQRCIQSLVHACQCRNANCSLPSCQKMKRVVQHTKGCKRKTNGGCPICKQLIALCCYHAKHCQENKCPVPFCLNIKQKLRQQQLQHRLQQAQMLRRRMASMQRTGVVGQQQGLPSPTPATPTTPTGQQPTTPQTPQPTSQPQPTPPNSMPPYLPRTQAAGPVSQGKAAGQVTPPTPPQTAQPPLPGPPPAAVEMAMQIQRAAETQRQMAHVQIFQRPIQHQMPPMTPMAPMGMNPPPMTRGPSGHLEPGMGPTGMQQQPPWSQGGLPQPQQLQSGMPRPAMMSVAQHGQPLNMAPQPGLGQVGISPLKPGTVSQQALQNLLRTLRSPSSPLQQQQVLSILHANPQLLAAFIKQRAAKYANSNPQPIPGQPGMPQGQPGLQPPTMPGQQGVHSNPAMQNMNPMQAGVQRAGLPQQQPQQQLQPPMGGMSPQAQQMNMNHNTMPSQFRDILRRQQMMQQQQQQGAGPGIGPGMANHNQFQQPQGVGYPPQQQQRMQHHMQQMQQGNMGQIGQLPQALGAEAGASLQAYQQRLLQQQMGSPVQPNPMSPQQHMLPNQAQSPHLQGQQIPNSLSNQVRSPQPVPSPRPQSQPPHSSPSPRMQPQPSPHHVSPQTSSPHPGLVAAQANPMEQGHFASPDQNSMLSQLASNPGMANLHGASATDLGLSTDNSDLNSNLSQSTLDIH", "assay": "Immunoprecipitation of HPV16 E6-p300 association in UMSCC47 cells", "type": "cell-based", "conditions": "UMSCC47, 10 μM, 24 hours", "method": "FIG. 5C is a graph of p53 activity. UMSCC47 (left) and UMSCC74A (right) cells were co-transfected with a p53 Firefly luciferase reporter plasmid and a control Renilla luciferase plasmid. After 24 hours, cells were treated with control (vehicle), CH1iA (10 μM), or CH1iB (10 μM) for 24 hours. Firefly luciferase activity was normalized to Renilla luciferase activity to control for transfection efficiency. Data is normalized to control and presented as mean±SEM. *P<0.05, n=3. FIG. 5D is a western blot showing total and acetylated p53 levels. UMSCC47 (left) and UMSCC74A (right) cells were treated with control (vehicle), CH1iA (10 μM), or CH1iB (10 μM) for 24 hours. Cell lysates were immunoblotted with anti-p53 or anti-acetylated[K382]-p53 antibody. FIG. 5E is a pair of graphs of p300, p53, p21, miR-34a, and miR-200c expression. UMSCC47 (top panel) and UMSCC74A (bottom panel) cells were treated with control (vehicle), CH1iA (10 μM), or CH1iB (10 μM) for 24 hours. mRNA expression was determined using qPCR with validated TaqMan assays. Data is normalized to control cells and presented as mean±SEM. *P<0.01, control vs. CH1iB, n=3. […] UMSCC47 cells were treated with control (vehicle), CH1iA (10 μM), or CH1iB (10 μM) for 24 hours. Cell lysates were extracted, immunoprecipitated with anti-p300 antibody, and immunoblotted with anti-E6 antibody. […]"}}}
{"substance": "XELA*RALDQ-NH2 (ELXRALDQ; HBS: 4-pentenoic acid, N-allylalanine; C-terminal amide; CH1iB) [X 4-pentenoic acid, A* N-allylalanine]", "values": [{"measurement": "p53 activity increase", "setting": "p53; UMSCC47 (HPV-positive), 10 μM, vs control (vehicle)", "value": 71, "unit": "%"}, {"measurement": "effect of cis-platinum on p53 activity", "setting": "p53; UMSCC47, CH1iB 10 μM with cis-platinum 10 μM", "value": "potentiated"}, {"measurement": "effect on anti-proliferative efficacy of cis-platinum (combination)", "setting": "UMSCC47 cells; UMSCC47, 10 μM with cis-platinum 10 μM", "value": "potentiated"}, {"measurement": "cell proliferation, single-agent", "setting": "UMSCC47 cells", "value": "inhibited"}, {"measurement": "association between E6 and p300", "setting": "[1]", "value": "reduced"}]}
{"substance": "XTAA*DCEYNAR (TAXDCEYNAR; HBS: 4-pentenoic acid, N-allylalanine; CH1iA) [X 4-pentenoic acid, A* N-allylalanine, reference compound]", "values": [{"measurement": "p53 activity, effect in words", "setting": "p53; UMSCC47 (HPV-positive), 10 μM", "value": "no effect"}, {"measurement": "cell proliferation, single-agent", "setting": "UMSCC47 cells", "value": "inactive"}]}
